From patent publication US20260070945A1, “MACROCYCLIC IMMUNOMODULATORS” (Bristol-Myers Squibb Company, priority 2022, published 2026)
*1 amine or outer side, *2 acyl side, *3 side chain or, on linkers, in order; H or OH if unused. Where a SMILES comes first, the peptide text is derived from it. Bridges are numbered along the chain shown (N, C = ends). [ ]: non-standard residue; d: D form. The star is where a group is joined. ξ: configuration not given here. X5 = O=C([C@H](Cc1ccc(-c2cc(F)c(F)c(F)c2)cc1)N[*:1])[*:2]; Phe(3-CF3) = N[C@@H](Cc1cccc(C(F)(F)F)c1)C(=O)O; Phe(4-COOH) = N[C@@H](Cc1ccc(C(=O)O)cc1)C(=O)O; Bip = N[C@@H](Cc1ccc(-c2ccccc2)cc1)C(=O)O; NH(CH2)14COOH = O=C(O)CCCCCCCCCCCCCCN*; Phe(3-Me) = Cc1cccc(C[C@H](N)C(=O)O)c1; γGlu = O=C(O)[C@H](CCC(=O)[*:2])N[*:1]; NH(CH2)12COOH = O=C(O)CCCCCCCCCCCCN*; ξγGlu = O=C(O)C(CCC(=O)[*:2])N[*:1]; Val(3-OH) = CC(C)(O)[C@H](N)C(=O)O; Cha = N[C@@H](CC1CCCCC1)C(=O)O; Cit = NC(=O)NCCC[C@H](N)C(=O)O; Ile(3ξ) = CCC(C)[C@H](N)C(=O)O; Thr(3ξ) = CC(O)[C@H](N)C(=O)O; 12Ado = NCCCCCCCCCCCC(=O)O; Carboxymethyl = O=C(O)C*; NMeA = CN[C@@H](C)C(=O)O; Orn = NCCC[C@H](N)C(=O)O; Aun = NCCCCCCCCCCC(=O)O; Dab = NCC[C@H](N)C(=O)O; AEEA = NCCOCCOCC(=O)O

Molecular target: T1, PD-1/PD-L1 interaction (PE-labeled human PD-L1-Ig binding to Jurkat cell line over-expressing human PD-1) (Homo sapiens, UniProt Q15116)
T1 construct: expressed in transfected cells; host or cells: Jurkat
T1 sequence (Q15116 25-288): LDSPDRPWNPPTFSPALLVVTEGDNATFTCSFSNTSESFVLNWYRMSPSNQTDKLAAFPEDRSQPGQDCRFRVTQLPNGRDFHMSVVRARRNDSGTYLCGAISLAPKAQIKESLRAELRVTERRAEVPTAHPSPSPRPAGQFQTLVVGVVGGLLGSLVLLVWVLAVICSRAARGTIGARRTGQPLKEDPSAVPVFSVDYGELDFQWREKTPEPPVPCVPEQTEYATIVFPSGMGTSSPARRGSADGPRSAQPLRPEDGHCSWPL
Assay: Jurkat-PD-1 Cell Binding High-Content Screening Assay (CBA)
Conditions: Jurkat-hPD-1 cells, PE-labeled PD-L1-Ig 20 nM final; read-out: Jurkat HPD1 PDL1 IC50
How it was run: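 Cells 8×10^3/well, DMEM + 10% FCS; cpd 2 h, 37 °C; PE–PD-L1-Ig 20 nM final, 1 h; PFA fix + Hoechst 33342, 3× dPBS wash; high-content imager.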

Row | SMILES | IC50
1 | COC[C@@H]1NC(=O)CSC[C@@H](C(=O)N[C@@H](CCN)C(=O)NCCOCCOCC(=O)NC(CCC(=O)NCCOCCOCC(=O)NCCCCCCCCCCCCC(=O)O)C(=O)O)NC(=O)[C@H](CCCCNC(C)=O)NC(=O)[C@H](C(C)(C)O)NC(=O)[C@H](CC2CCCCC2)NC(=O)[C@H](CCN)NC(=O)[C@@H](CC(C)C)NC(=O)[C@H](C)N(C)C(=O)[C@H](CCCNC(N)=O)NC(=O)[C@H](Cc2ccc(-c3ccccc3)cc2)NC(=O)[C@H](Cc2ccc(C(=O)O)cc2)NC(=O)[C@H](Cc2cccc(C(F)(F)F)c2)NC(=O)[C@H](CC(=O)O)NC(=O)[C@H](Cc2ccc(OCC(=O)O)cc2)NC1=O (stereo partly drawn) [Example 1168] ({CH2CO}-S(Me)Y(Carboxymethyl)D[Phe(3-CF3)][Phe(4-COOH)][Bip][Cit][NMeA][dL][Dab][Cha][Val(3-OH)]K(Ac)C[Dab][AEEA][ξγGlu][AEEA]-{NH(CH2)12COOH}; thioether N-14) | 14.8 nM
2 | CC(C)C[C@@H]1NC(=O)[C@H](Cc2c[nH]c3ccccc23)NC(=O)[C@H](CC(=O)O)NC(=O)[C@H](Cc2ccc(C(=O)O)cc2)NC(=O)[C@H](Cc2ccc(OCC(=O)O)cc2)NC(=O)CSC[C@@H](C(=O)N[C@@H](CCN)C(=O)NCCOCCOCC(=O)NCCCCCCCCCCC(=O)O)NC(=O)[C@H](CCC(N)=O)NC(=O)[C@H](C(C)C)NC(=O)[C@H](CC2CCCCC2)NC(=O)[C@H](CCN)NC(=O)[C@@H](CC(C)C)NC(=O)[C@H](C)N(C)C(=O)[C@H](C(C)C)NC(=O)[C@H](Cc2ccc(-c3ccccc3)cc2)NC1=O [Example 1126] ({CH2CO}-Y(Carboxymethyl)[Phe(4-COOH)]DWL[Bip]V[NMeA][dL][Dab][Cha]VQC[Dab][AEEA][Aun]-OH; thioether N-14) | 3.4 nM
3 | CC(=O)NCCCC[C@@H]1NC(=O)[C@H](C(C)(C)O)NC(=O)[C@H](CC2CCCCC2)NC(=O)[C@H](CCN)NC(=O)[C@@H](CC(C)C)NC(=O)[C@H](C)N(C)C(=O)[C@H](CCC(N)=O)NC(=O)[C@H](Cc2ccc(-c3ccccc3)cc2)NC(=O)[C@H](Cc2ccc(C(=O)O)cc2)NC(=O)[C@H](Cc2cccc(C(F)(F)F)c2)NC(=O)[C@H](CC(=O)O)NC(=O)[C@H](Cc2ccc(OCC(=O)O)cc2)NC(=O)[C@H](Cc2ccc(C(=O)O)cc2)NC(=O)CSC[C@@H](C(=O)N[C@@H](CCN)C(=O)NCCOCCOCC(=O)N[C@@H](CCC(=O)NCCOCCOCC(=O)NCCCCCCCCCCCCC(=O)O)C(=O)O)NC1=O [Example 1185] ({CH2CO}-[Phe(4-COOH)]Y(Carboxymethyl)D[Phe(3-CF3)][Phe(4-COOH)][Bip]Q[NMeA][dL][Dab][Cha][Val(3-OH)]K(Ac)C[Dab][AEEA][γGlu][AEEA]-{NH(CH2)12COOH}; thioether N-14) | 50.2 nM
4 | Cc1cccc(C[C@@H]2NC(=O)[C@H](CC(=O)O)NC(=O)[C@H](Cc3ccc(OCC(=O)O)cc3)NC(=O)[C@H]([C@@H](C)O)NC(=O)CSC[C@@H](C(=O)N[C@@H](CCCN)C(=O)NCCOCCOCC(=O)NCCCCCCCCCCC(=O)O)NC(=O)[C@H]([C@@H](C)O)NC(=O)[C@H](C(C)C)NC(=O)[C@H](CC3CCCCC3)NC(=O)[C@H](CC(N)=O)NC(=O)[C@@H](CC(C)C)NC(=O)[C@H](C)N(C)C(=O)[C@H](Cc3ccc(OCC(=O)O)cc3)NC(=O)[C@H](Cc3ccc(-c4ccccc4)cc3)NC(=O)[C@H](Cc3ccc(OCC(=O)O)cc3)NC2=O)c1 [Example 1365] ({CH2CO}-TY(Carboxymethyl)D[Phe(3-Me)]Y(Carboxymethyl)[Bip]Y(Carboxymethyl)[NMeA][dL]N[Cha]VTC[Orn][AEEA][Aun]-OH; thioether N-14) | 59.7 nM
5 | CC(C)C[C@@H]1NC(=O)[C@H](Cc2c[nH]c3ccccc23)NC(=O)[C@H](CC(=O)O)NC(=O)[C@H](Cc2ccc(C(=O)O)cc2)NC(=O)[C@H](Cc2ccc(OCC(=O)O)cc2)NC(=O)CSC[C@@H](C(=O)N[C@@H](CC(N)=O)C(=O)NCCOCCOCC(=O)NCCCCCCCCCCC(=O)O)NC(=O)[C@H](CO)NC(=O)[C@H](C(C)(C)O)NC(=O)[C@H](CC2CCCCC2)NC(=O)[C@H](CCN)NC(=O)[C@@H](CC(C)C)NC(=O)[C@H](C)N(C)C(=O)[C@H](C(C)C)NC(=O)[C@H](Cc2ccc(-c3ccccc3)cc2)NC1=O [Example 1413] ({CH2CO}-Y(Carboxymethyl)[Phe(4-COOH)]DWL[Bip]V[NMeA][dL][Dab][Cha][Val(3-OH)]SCN[AEEA][Aun]-OH; thioether N-14) | 18.1 nM
6 | Cc1cccc(C[C@@H]2NC(=O)[C@H](CC(=O)O)NC(=O)[C@H](Cc3ccc(OCC(=O)O)cc3)NC(=O)[C@H]([C@@H](C)O)NC(=O)CSC[C@@H](C(=O)N[C@@H](CCN)C(=O)NCCCCCCCCCCC(=O)O)NC(=O)[C@H]([C@@H](C)O)NC(=O)[C@H](C(C)C)NC(=O)[C@H](CC3CCCCC3)NC(=O)[C@H](CCN)NC(=O)[C@@H](CC(C)C)NC(=O)[C@H](C)N(C)C(=O)[C@H](Cc3ccc(OCC(=O)O)cc3)NC(=O)[C@H](Cc3ccc(-c4cc(F)c(F)c(F)c4)cc3)NC(=O)[C@H](Cc3ccc(C(=O)O)cc3)NC2=O)c1 [Example 1236] ({CH2CO}-TY(Carboxymethyl)D[Phe(3-Me)][Phe(4-COOH)][X5]Y(Carboxymethyl)[NMeA][dL][Dab][Cha]VTC[Dab][Aun]-OH; thioether N-14) | 54.5 nM

The next lines start with the values.

Row | IC50 | SMILES
7 | 114 nM | CC(C)C[C@H]1NC(=O)[C@H](C)N(C)C(=O)[C@H](Cc2ccc(O)cc2)NC(=O)[C@H](Cc2ccc(-c3ccccc3)cc2)NC(=O)[C@H](C(C)C)NC(=O)[C@H](Cc2c[nH]c3ccccc23)NC(=O)[C@H](CC(=O)O)NC(=O)[C@H](Cc2ccc(OCC(=O)O)cc2)NC(=O)[C@H](C(C)O)NC(=O)CSC[C@@H](C(=O)N[C@H](CC(N)=O)C(=O)NCCCCCCCCCCC(=O)O)NC(=O)[C@H](CCCN)NC(=O)[C@H](C(C)C)NC(=O)[C@H](CC2CCCCC2)NC(=O)[C@H](CCN)NC1=O (stereo partly drawn) [Example 2242] ({CH2CO}-[Thr(3ξ)]Y(Carboxymethyl)DWV[Bip]Y[NMeA][dL][Dab][Cha]V[Orn]C[dN][Aun]-OH; thioether N-14)
8 | 12.9 nM | CCC(C)[C@@H]1NC(=O)[C@H](Cc2ccc(-c3ccccc3)cc2)NC(=O)[C@H](C(C)C)NC(=O)[C@H](Cc2cccc(C)c2)NC(=O)[C@H](CC(=O)O)NC(=O)[C@H](Cc2ccc(OCC(=O)O)cc2)NC(=O)[C@H](CCCNC(=N)N)NC(=O)CSC[C@@H](C(=O)N[C@H](CC(N)=O)C(=O)NCCCCCCCCCCC(=O)O)NC(=O)[C@H](CCCNC(N)=O)NC(=O)[C@H](C(C)C)NC(=O)[C@H](CC2CCCCC2)NC(=O)[C@H](CCN)NC(=O)[C@@H](CC(C)C)NC(=O)[C@H](C)N(C)C1=O (stereo partly drawn) [Example 2288] ({CH2CO}-RY(Carboxymethyl)D[Phe(3-Me)]V[Bip][Ile(3ξ)][NMeA][dL][Dab][Cha]V[Cit]C[dN][Aun]-OH; thioether N-14)

Same assay, conditions: PE-labeled PD-L1-Ig 20 nM final, Jurkat-hPD-1 cells; read-out: Jurkat HPD1 PDL1 IC50

Row | IC50 | SMILES
9 | 2.4 nM | Cc1cccc(C[C@@H]2NC(=O)[C@H](CC(=O)O)NC(=O)[C@H](Cc3ccc(OCC(=O)O)cc3)NC(=O)[C@H]([C@@H](C)O)NC(=O)CSC[C@@H](C(=O)N[C@@H](CCN)C(=O)NCCOCCOCC(=O)NCCCCCCCCCCCC(=O)O)NC(=O)[C@H](C)NC(=O)[C@H](C(C)C)NC(=O)[C@H](CC3CCCCC3)NC(=O)[C@H](CCN)NC(=O)[C@@H](CC(C)C)NC(=O)[C@H](C)N(C)C(=O)[C@H](Cc3ccc(OCC(=O)O)cc3)NC(=O)[C@H](Cc3ccc(-c4ccccc4)cc3)NC(=O)[C@H](Cc3ccc(OCC(=O)O)cc3)NC2=O)c1 [Example 2669] ({CH2CO}-TY(Carboxymethyl)D[Phe(3-Me)]Y(Carboxymethyl)[Bip]Y(Carboxymethyl)[NMeA][dL][Dab][Cha]VAC[Dab][AEEA][12Ado]-OH; thioether N-14)
10 | 4.2 nM | CCC(C)[C@@H]1NC(=O)[C@H](Cc2ccc(-c3ccccc3)cc2)NC(=O)[C@H](C(C)C)NC(=O)[C@H](Cc2c[nH]c3ccccc23)NC(=O)[C@H](CC(=O)O)NC(=O)[C@H](Cc2ccc(OCC(=O)O)cc2)NC(=O)[C@H](Cc2ccc(OCC(=O)O)cc2)NC(=O)CSC[C@@H](C(=O)N[C@@H](CCN)C(=O)NCCOCCOCC(=O)NCCCCCCCCCCC(=O)O)NC(=O)[C@H](CCCCNC(C)=O)NC(=O)[C@H](C(C)(C)O)NC(=O)[C@H](CC2CCCCC2)NC(=O)[C@H](Cc2cnc[nH]2)NC(=O)[C@@H](CC(C)C)NC(=O)[C@H](C)N(C)C1=O (stereo partly drawn) [Example 2588] ({CH2CO}-Y(Carboxymethyl)Y(Carboxymethyl)DWV[Bip][Ile(3ξ)][NMeA][dL]H[Cha][Val(3-OH)]K(Ac)C[Dab][AEEA][Aun]-OH; thioether N-14)
11 | 140 nM | Cc1cccc(C[C@@H]2NC(=O)[C@H](CC(=O)O)NC(=O)[C@H](Cc3ccc(OCC(=O)O)cc3)NC(=O)[C@H](C(C)O)NC(=O)CSC[C@@H](C(=O)NCCOCCOCC(=O)NCCCCCCCCCCC(=O)O)NC(=O)[C@H](Cc3cnc[nH]3)NC(=O)[C@H](C(C)(C)O)NC(=O)[C@H](CC3CCCCC3)NC(=O)[C@H](CCN)NC(=O)[C@@H](CC(C)C)NC(=O)[C@H](C)N(C)C(=O)[C@H](Cc3ccc(OCC(=O)O)cc3)NC(=O)[C@H](Cc3ccc(-c4ccccc4)cc3)NC(=O)[C@H](Cc3ccc(C(=O)O)cc3)NC2=O)c1 (stereo partly drawn) [Example 2431] ({CH2CO}-[Thr(3ξ)]Y(Carboxymethyl)D[Phe(3-Me)][Phe(4-COOH)][Bip]Y(Carboxymethyl)[NMeA][dL][Dab][Cha][Val(3-OH)]HC[AEEA][Aun]-OH; thioether N-14)
12 | 103 nM | CC(=O)NCCCC[C@@H]1NC(=O)[C@H](C(C)(C)O)NC(=O)[C@H](CC2CCCCC2)NC(=O)[C@H](CCN)NC(=O)[C@@H](CC(C)C)NC(=O)[C@H](C)N(C)C(=O)[C@H](CCC(N)=O)NC(=O)[C@H](Cc2ccc(-c3ccccc3)cc2)NC(=O)[C@H](Cc2ccc(C(=O)O)cc2)NC(=O)[C@H](Cc2cccc(C)c2)NC(=O)[C@H](CC(=O)O)NC(=O)[C@H](Cc2ccc(OCC(=O)O)cc2)NC(=O)[C@H](Cc2ccc(OCC(=O)O)cc2)NC(=O)CSC[C@@H](C(=O)N[C@@H](CCN)C(=O)NCCOCCOCC(=O)NCCCCCCCCCCCCCCC(=O)O)NC1=O [Example 2576] ({CH2CO}-Y(Carboxymethyl)Y(Carboxymethyl)D[Phe(3-Me)][Phe(4-COOH)][Bip]Q[NMeA][dL][Dab][Cha][Val(3-OH)]K(Ac)C[Dab][AEEA]-{NH(CH2)14COOH}; thioether N-14)
